Among the data in publication PMC6079014, “Calcium is an essential cofactor for metal efflux by the ferroportin transporter family” (Nature Communications, 2018) are EC50 values, retold here.

This assay addresses T1, human Fpn Q99A (Homo sapiens, UniProt Q9NP59, Q99A).
T1 construct: expressed in transfected cells; host or cells: Xenopus laevis oocytes injected with mutant Fpn RNA (pOX(+) vector)
T1 sequence (Q9NP59 1-571 Q99A): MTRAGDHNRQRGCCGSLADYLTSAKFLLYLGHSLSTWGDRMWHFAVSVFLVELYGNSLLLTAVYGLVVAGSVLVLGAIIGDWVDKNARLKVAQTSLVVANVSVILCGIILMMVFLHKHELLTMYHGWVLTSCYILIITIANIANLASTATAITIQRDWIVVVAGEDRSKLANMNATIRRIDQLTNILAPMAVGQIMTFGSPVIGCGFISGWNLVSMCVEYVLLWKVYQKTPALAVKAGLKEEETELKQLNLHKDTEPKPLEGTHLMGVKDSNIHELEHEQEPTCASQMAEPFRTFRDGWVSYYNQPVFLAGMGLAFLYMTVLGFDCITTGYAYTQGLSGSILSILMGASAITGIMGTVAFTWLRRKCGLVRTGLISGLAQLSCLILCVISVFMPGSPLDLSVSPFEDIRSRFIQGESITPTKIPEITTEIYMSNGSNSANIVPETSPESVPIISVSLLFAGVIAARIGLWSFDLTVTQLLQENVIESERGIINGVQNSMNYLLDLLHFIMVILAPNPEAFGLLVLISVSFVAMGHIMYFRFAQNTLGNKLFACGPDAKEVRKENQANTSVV
Kind of assay: 55Fe efflux assay in Xenopus oocytes expressing Q99A mutant human Fpn. The format is cell-based. The following applies: fit by Eq. (2), ± SEM, read-out: K0.5Ca, half-maximal extracellular Ca2+ concentration for stimulation of 55Fe efflux. The procedure:
We performed laparotomy and ovariectomy on adult female Xenopus laevis frogs (Nasco, Fort Atkinson, WI) under 2-aminoethylbenzoate methanesulfonate anesthesia (0.2%, by immersion, to effect) following a protocol approved by the University of Cincinnati Institutional Animal Care and Use Committee. Ovarian tissue was isolated and treated for 3 h with […] collagenase A (Roche Diagnostics Corp., Indianapolis, IN) in calcium-free-modified Barths’ medium (MBM) of composition 88 mM NaCl, 1 mM KCl, 2.4 mM NaHCO3, 1.57 mM MgSO4, 0.66 mM NaNO3, 10 mM 4-(2-hydroxyethyl)-1-piperazineethanesulfonic acid (HEPES), buffered to pH 7.5 by using 2-amino-2-hydroxymethyl-propane-1,3-diol (Tris base). […]
We measured metal efflux from oocytes expressing Fpn by using a radiotracer assay. […]
To initiate the efflux assay, we placed oocytes in standard efflux medium of composition 100 mM NaCl, 1 mM KCl, 2 mM CaCl2, 1 mM MgCl2, 0.5 mM bathophenanthroline disulfonic acid (BPS), 1 mM nitrilotriacetic acid (NTA) trisodium salt, 50 μg/ml apotransferrin (ApoTf) (R&D Systems Inc., Minneapolis, MN), buffered with 0–5 mM MES, and 0–5 mM N′,N′-diethylpiperazine to obtain pH 7.5, with the following exceptions. […] The corresponding oocytes were rinsed twice in ice-cold medium (without BPS), solubilized with 5% (w/v) sodium dodecyl sulfate, and counted (Nt). […]

Take `[Ca+2]` [Ca^2+, calcium]: the EC50 is 2400 µM.
